Laboratory results as given in patent publication US7109206B2.

What was measured:
[1] = tested on: patients with severe coronary artery disease; assay: Angina symptoms and clinical outcome of treated patients (case reports); assay type: in vivo, human; settings: for angina frequency: buspirone 20 mg t.i.d.; for time to clearing of congestive heart failure: furosemide 40 mg twice a day, digoxin 0.25 mg, warfarin 5 mg once a day
Text: The patient population in this study consisted of 11 individuals with severe coronary artery disease who were refractory to CABG or PCTA or who declined recommended CABG or PCTA, and one individual with severe carotid artery stenosis. The study group consisted of 10 men and 2 women, with a median age at entry into the program of 65 years (mean, 65.8 years), and a mean time in program of 4.1 years (range, 9 months to 12 years).
In this study, ten patients experienced angina at the time of presentation. The median time to remission of anginal symptoms was calculated on the basis of the nine patients who presented with angina and for whom records of anginal frequency were accessible.

[2] = Serum lipids and laboratory values of treated patients (case reports)
[3] = tested on: patients with severe coronary artery disease; assay: Tolerability / adverse effects in treated patients

With `O=C1CC2(CCCC2)CC(=O)N1CCCCN1CCN(c2ncccn2)CC1` [buspirone] the angina ([1]; Patient five, buspirone 15 mg t.i.d. added, induction phase) was “their angina remitted”, the angina frequency ([1]; Patient five, no use of nitroglycerin) was “one episode of mild angina in two weeks” and the angina frequency ([1]; Patient five, through June of the next year) was “no episodes of angina”. For the same compound, the angina symptoms ([1]; Patient five, buspirone increased to 20 mg t.i.d., isosorbide dinitrate discontinued) was “Marked palliation of the symptoms”, the “chest tightness with anxiety or distress” value ([1]; Patient one, buspirone 10 mg b.i.d. added to medications) was “no further episodes of chest tightness were reported” and the “frequency of angina symptoms” value ([1]; Patient, buspirone 30 mg per day, after one month 15 mg t.i.d.) was “remained approximately constant”. For the same compound, the “severity of angina symptoms” value ([1]; Patient, buspirone 30 mg per day, after one month 15 mg t.i.d., added to medications) was “declined markedly, from pain to mild tightness”, the anginal symptoms ([1]; Patient, buspirone, six months after initiation of therapy) was “resolved completely” and the “relief from refractory unstable angina” value ([1]; summary of results) was “effective in providing relief from refractory unstable angina”.

For `C[C@H]1O[C@@H](O[C@H]2[C@@H](O)C[C@H](O[C@H]3[C@@H](O)C[C@H](O[C@H]4CC[C@@]5(C)[C@H](CC[C@@H]6[C@@H]5C[C@@H](O)[C@]5(C)[C@@H](C7=CC(=O)OC7)CC[C@]65O)C4)O[C@@H]3C)O[C@@H]2C)C[C@H](O)[C@@H]1O` [digoxin], the “time to clearing of congestive heart failure” value ([1]; Patient three, given together) was 24 h.

For `COc1ccc([C@@H]2Sc3ccccc3N(CCN(C)C)C(=O)[C@@H]2OC(C)=O)cc1` [diltiazem], the angina ([1]; Patient three, diltiazem restarted after one month of lisinopril) was “prompt remission of angina”.

For `NCCCC[C@H](N[C@@H](CCc1ccccc1)C(=O)O)C(=O)N1CCC[C@H]1C(=O)O` [lisinopril], the angina ([1]; Patient three, lisinopril 5 mg/day substituted for diltiazem 60 mg four times a day) was “Angina recurred with mild to moderate exercise”.

In the case of `CC[C@H](C)C(=O)O[C@H]1C[C@@H](C)C=C2C=C[C@H](C)[C@H](CC[C@@H]3C[C@@H](O)CC(=O)O3)[C@H]21` [lovastatin], the total cholesterol ([2]; Patient two, fifth year, lovastatin discontinued, range 155 to 194) is reported as 176 mg/dL and the adverse event ([3]; Patient four, on lovastatin 30 mg per day regimen, pravastatin substituted) is reported as “mild conjunctivitis of unknown etiology”.

For `O=C(O)c1cccnc1` [niacin], the adverse effect ([3]; Patient three, niacin 3.0 g/day, weeks 5-7, dose decreased to 1.5 g/day) was “itching and flushing” and the tolerability ([3]; Patient two, niacin 3 g per day, dose decreased to 1 g per day) was “intolerance appeared”.

For `O=[N+]([O-])OCC(CO[N+](=O)[O-])O[N+](=O)[O-]` [nitroglycerin], the angina after discontinuation ([1]; Patient five, discontinuation of the nitroglycerin) was “five episodes of angina”, the nonexertional angina ([1]; Patient five, transdermal nitroglycerin) was “refractory” and the left neck pain ([1]; Patient two, 15 months after induction of therapy) was “relieved”.

In the case of `CCC(C)(C)C(=O)O[C@H]1C[C@@H](C)C=C2C=C[C@H](C)[C@H](CC[C@@H]3C[C@@H](O)CC(=O)O3)[C@H]21` [simvastatin], the “serum total cholesterol, mean of five determinations” value ([2]; Patient four, simvastatin 40 mg per day substituted for pravastatin in the regimen, range 81-146) is reported as 118 mg/dL, the “HDL cholesterol, mean of five determinations” value ([2]; Patient four, simvastatin 40 mg per day, range 37-71) is reported as 55 mg/dL and the HDL ([2]; Patient four, year of 1995) is reported as 82 mg/dL. It also gave an LDL ([2]; Patient four, year of 1995) of 53 mg/dL, a total cholesterol ([2]; Patient four, year of 1995) of 121 mg/dL and a triglycerides ([2]; Patient four, year of 1995) of 44 mg/dL.

For `O=c1n(CCCN2CCN(c3cccc(Cl)c3)CC2)nc2ccccn12` [trazodone], the “relief of fatigue and difficulty sleeping” value ([1]; Patient three, trazodone 50 mg and imipramine 25 mg at bedtime, given together) was “fair to moderate relief”.

For `CC(=O)CC(c1ccccc1)c1c(O)c2ccccc2oc1=O` (centres unmarked) [warfarin], the “time to clearing of congestive heart failure” value ([1]; Patient three, given together) was 24 h.

With colestipol the angina ([1]; Patient five, colestipol 12 g per day) was “severity of their angina declined” and the “serum total cholesterol, mean of three determinations” value ([2]; Patient five, colestipol 12 g per day, declined from 241) was 217 mg/dL.
